Experimental findings from publication PMC3466466, “Taltirelin is a superagonist at the human thyrotropin-releasing hormone receptor” (Frontiers in Endocrinology, 2012) are described below.

Assay [1] concerns the target T1, TRH-R (human TRH receptor) (Homo sapiens, UniProt P34981).
T1 construct: gene TRHR; full-length human cDNA subcloned into pcDNA3.1(+)/hygromycin; stably expressed in HEK-EM 293 cells, 16,000 receptors/cell
T1 sequence (P34981 1-398): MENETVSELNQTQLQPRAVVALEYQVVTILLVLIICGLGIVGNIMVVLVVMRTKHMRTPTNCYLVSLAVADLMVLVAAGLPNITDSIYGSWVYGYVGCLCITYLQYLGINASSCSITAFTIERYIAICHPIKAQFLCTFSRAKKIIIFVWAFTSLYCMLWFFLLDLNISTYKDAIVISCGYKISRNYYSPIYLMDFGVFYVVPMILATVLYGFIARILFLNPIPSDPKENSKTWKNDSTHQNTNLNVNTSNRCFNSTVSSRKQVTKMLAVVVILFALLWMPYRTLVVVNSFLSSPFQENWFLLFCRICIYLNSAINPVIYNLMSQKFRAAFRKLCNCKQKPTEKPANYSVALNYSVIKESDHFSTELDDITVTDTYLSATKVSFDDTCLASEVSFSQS
Kind of assay: intracellular Ca2+ release, calcium […] dye, FLIPR. The note with it: read-out: EC50 for Ca signaling. In kind it is cell-based.

Assay [2] concerns the target T1, TRH-R (human TRH receptor). Kind of assay: [3H]MeTRH competition binding, intact HEK-EM […] cells. In kind it is cell-based.

Broadly, the EC50 is the concentration at which the effect is half-maximal. The IC50 is the point on the concentration scale where inhibition reaches its midpoint.

As to `CN1C(=O)C[C@@H](C(=O)N[C@@H](Cc2c[nH]cn2)C(=O)N2CCC[C@H]2C(N)=O)NC1=O` [TAL, N-[[(4S)-Hexahydro-1-methyl-2,6-dioxo-4-pyrimidinyl]carbonyl]-L-histidyl-L-prolinamide], in assay [1], the EC50 came out at 36 nM. The IC50 in assay [2] came out at 910 nM.
